Values of other authors as cited in patent US12291505B2, “Methods for the synthesis of deuterated dextromethorphan” (AVANIR PHARMACEUTICALS, INC., priority 2016, dated 2025).

What was measured:
[1] = biological target: N-methyl-D-aspartate (NMDA) receptor; details: weak uncompetitive antagonist
sigma-1 = sigma-1 (Homo sapiens, UniProt Q99720); details: read-out: Ki, sigma-1; sigma-1 agonist
[2] = biological target: norepinephrine transporter (Homo sapiens, UniProt P23975); details: read-out: Ki, norepinephrine transporter affinity
uptake of norepinephrine = details: read-out: Ki, inhibition of uptake of norepinephrine
[3] = co-administered with dextromethorphan

Sequence of norepinephrine transporter (P23975 whole entry, species assumed): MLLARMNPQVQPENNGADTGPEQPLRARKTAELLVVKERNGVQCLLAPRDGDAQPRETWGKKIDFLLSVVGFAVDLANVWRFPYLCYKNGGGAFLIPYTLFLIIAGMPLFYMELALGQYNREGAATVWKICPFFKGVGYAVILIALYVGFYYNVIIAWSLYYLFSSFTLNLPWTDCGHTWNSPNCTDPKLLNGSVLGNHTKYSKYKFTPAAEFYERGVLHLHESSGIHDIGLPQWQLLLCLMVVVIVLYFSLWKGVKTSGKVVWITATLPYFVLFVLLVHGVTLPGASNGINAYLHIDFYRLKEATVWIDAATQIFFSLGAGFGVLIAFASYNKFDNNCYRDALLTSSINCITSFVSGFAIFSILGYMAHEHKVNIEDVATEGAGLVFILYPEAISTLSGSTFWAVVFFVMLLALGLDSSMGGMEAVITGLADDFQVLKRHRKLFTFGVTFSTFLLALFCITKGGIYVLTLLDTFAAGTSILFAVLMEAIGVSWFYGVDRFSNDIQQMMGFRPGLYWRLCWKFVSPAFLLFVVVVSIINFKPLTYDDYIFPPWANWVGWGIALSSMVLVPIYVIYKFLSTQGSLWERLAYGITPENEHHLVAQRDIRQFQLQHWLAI
Sequence of sigma-1 (Q99720 whole entry): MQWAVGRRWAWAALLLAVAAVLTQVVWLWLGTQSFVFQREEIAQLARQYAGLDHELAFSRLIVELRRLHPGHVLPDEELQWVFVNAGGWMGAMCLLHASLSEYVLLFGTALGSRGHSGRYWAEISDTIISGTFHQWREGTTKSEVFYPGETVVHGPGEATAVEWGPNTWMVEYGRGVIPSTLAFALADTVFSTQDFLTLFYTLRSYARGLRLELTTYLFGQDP

SMILES	Ki [1] [nM]	Ki (sigma-1) [nM]	Ki [2] [nM]	Ki (uptake of norepinephrine) [nM]	effect on dextromethorphan in the blood [3]
COc1ccc2c(c1)[C@]13CCCC[C@@H]1[C@H](C2)N(C)CC3 [DM, (+)-3-methoxy-17-methyl-(9α,13α,14α)-morphinan]	1500	200	13000	240	
C=C[C@H]1C[N@@]2CC[C@H]1C[C@@H]2[C@@H](O)c1ccnc2ccc(OC)cc12 [Quinidine]					greatly increases the quantity of dextromethorphan circulating in the blood
